#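 Test compounds were applied to cells in 96-well plates for 48 hours at 5 doses. The concentration for 50% growth inhibition is given as GI50. At the TGI there is no net growth.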
# Experiments:
# Assay in all cases: DTP human tumour cell line panel, 48 h
# [1] = system: NCI-H522 lung
# [2] = system: MALME-3M melanoma
# [3] = system: SK-MEL-5 melanoma
# [4] = system: HL-60(TB) leukemia
# [5] = system: SF-295 CNS
# [6] = system: OVCAR-5 ovarian
# [7] = system: HCT-15 colon
# [8] = system: KM12 colon
# [9] = system: NCI-H23 lung
# [10] = system: EKVX NSCLC
SMILES,GI50 [1],TGI [1],GI50 [2],TGI [2],GI50 [3],TGI [3],GI50 [4],TGI [4],GI50 [5],TGI [5],GI50 [6],TGI [6],GI50 [7],TGI [7],GI50 [8],TGI [8],GI50 [9],TGI [9],GI50 [10],TGI [10]
Cn1cc(C2=C(c3cn(C)c4ncccc34)C(=O)NC2=O)c2ccccc21,10.2 µM,> 25 µM,8.5 µM,20 µM,6.27 µM,> 17.6 µM,7.85 µM,20.1 µM,7.18 µM,> 25 µM,10.4 µM,> 25 µM,7.34 µM,> 25 µM,8.59 µM,> 25 µM,14.3 µM,> 25 µM,–,–
COC(=O)CC1CCN(C#N)CC1CC[N+](=O)[O-] (configuration not stated),–,> 100 µM,–,> 100 µM,–,> 100 µM,–,> 100 µM,–,–,–,–,–,> 100 µM,–,> 100 µM,–,–,–,–
COc1ccc(-c2nc3sccn3c2/C(N)=N/C(=N)N)cc1OC,7.85 µM,> 100 µM,13.3 µM,32.9 µM,21.3 µM,44.5 µM,–,–,30.5 µM,87.1 µM,78 µM,> 100 µM,> 100 µM,> 100 µM,24.7 µM,81.8 µM,> 100 µM,> 100 µM,66.4 µM,> 100 µM
N#CC1C(C#N)C2(c3ccccc3)C(c3ccccc3)=NN(c3ccccc3)CC12 (configuration not stated),–,–,–,> 100 µM,–,> 100 µM,–,> 100 µM,–,> 100 µM,–,> 100 µM,–,> 100 µM,–,> 100 µM,–,–,–,> 100 µM
CCOC(=O)CN1C(=O)c2cccc3cc([N+](=O)[O-])cc(c23)C1=O,–,–,–,5.23 µM,–,25.5 µM,–,2.32 µM,–,–,–,28.9 µM,–,3.47 µM,–,8.73 µM,–,4.52 µM,–,28.6 µM
N#CCCN(CCC#N)c1ccc(/C=C2\N=C(c3cc([N+](=O)[O-])ccc3Cl)OC2=O)cc1,–,27.6 µM,–,> 100 µM,–,33.4 µM,–,67.3 µM,–,> 100 µM,–,> 100 µM,–,> 100 µM,–,28.2 µM,–,–,–,> 100 µM
CCN(CCO)CC1CCCC2CCCCC21 (configuration not stated),–,> 100 µM,–,> 100 µM,–,> 100 µM,–,–,–,> 100 µM,–,> 100 µM,–,> 100 µM,–,> 100 µM,–,> 100 µM,–,> 100 µM
N#CC(c1ccc(Cl)cc1)c1cccc(C(C#N)c2ccc(Cl)cc2)n1 (configuration not stated),–,> 100 µM,–,> 100 µM,–,–,–,> 100 µM,–,> 100 µM,–,> 100 µM,–,–,–,> 100 µM,–,57 µM,–,> 100 µM
CCCCCN(CCCCC)CCCNc1c2c(nc3ccc(Cl)cc13)CCCC2,1.74 µM,3.86 µM,2.54 µM,6.01 µM,1.82 µM,3.34 µM,–,–,1.18 µM,3.05 µM,3.36 µM,15 µM,2.58 µM,11.1 µM,3.13 µM,10.3 µM,2.12 µM,6.73 µM,2.78 µM,13.6 µM
